Experimental data as given in PMC12615753, “Glutathione as a taste modulator: molecular mechanisms of interaction with umami and sweet taste receptors” (Food Chemistry: Molecular Sciences, 2025).
Entries after “also recorded” stand apart in the source; their conditions may differ.

Biological target: T1, hTAS1R1 D192F/rTAS1R3 (UniProt Q7RTX1+Q923K1, D192F)
T1 construct: The cDNA coding region of rTAS1R3 was synthesized with optimized-codon usage for human expression; expressed in transfected cells; host or cells: HEK293T/17
T1 sequence (Q7RTX1 21-841 D192F): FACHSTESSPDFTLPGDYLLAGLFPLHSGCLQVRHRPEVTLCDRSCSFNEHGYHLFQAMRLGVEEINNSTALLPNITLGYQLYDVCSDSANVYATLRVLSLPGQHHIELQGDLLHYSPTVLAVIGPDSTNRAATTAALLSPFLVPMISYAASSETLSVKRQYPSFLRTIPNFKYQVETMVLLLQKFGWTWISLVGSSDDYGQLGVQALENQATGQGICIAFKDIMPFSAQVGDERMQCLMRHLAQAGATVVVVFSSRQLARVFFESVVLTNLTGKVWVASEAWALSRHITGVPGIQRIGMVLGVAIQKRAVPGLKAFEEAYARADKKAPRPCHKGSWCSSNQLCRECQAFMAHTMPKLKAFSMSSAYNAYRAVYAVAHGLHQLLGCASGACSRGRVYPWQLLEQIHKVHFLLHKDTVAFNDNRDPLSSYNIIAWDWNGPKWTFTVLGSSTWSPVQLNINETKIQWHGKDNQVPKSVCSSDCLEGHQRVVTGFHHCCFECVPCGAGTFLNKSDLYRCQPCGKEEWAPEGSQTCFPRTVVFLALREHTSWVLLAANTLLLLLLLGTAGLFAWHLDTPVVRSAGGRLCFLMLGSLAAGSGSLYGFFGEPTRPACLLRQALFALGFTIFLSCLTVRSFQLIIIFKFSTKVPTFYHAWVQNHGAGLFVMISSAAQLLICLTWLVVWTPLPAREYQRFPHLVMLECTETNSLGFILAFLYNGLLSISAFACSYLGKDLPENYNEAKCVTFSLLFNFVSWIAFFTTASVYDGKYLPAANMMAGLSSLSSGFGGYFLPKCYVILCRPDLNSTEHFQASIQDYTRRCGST
T1 sequence (Q923K1 21-858): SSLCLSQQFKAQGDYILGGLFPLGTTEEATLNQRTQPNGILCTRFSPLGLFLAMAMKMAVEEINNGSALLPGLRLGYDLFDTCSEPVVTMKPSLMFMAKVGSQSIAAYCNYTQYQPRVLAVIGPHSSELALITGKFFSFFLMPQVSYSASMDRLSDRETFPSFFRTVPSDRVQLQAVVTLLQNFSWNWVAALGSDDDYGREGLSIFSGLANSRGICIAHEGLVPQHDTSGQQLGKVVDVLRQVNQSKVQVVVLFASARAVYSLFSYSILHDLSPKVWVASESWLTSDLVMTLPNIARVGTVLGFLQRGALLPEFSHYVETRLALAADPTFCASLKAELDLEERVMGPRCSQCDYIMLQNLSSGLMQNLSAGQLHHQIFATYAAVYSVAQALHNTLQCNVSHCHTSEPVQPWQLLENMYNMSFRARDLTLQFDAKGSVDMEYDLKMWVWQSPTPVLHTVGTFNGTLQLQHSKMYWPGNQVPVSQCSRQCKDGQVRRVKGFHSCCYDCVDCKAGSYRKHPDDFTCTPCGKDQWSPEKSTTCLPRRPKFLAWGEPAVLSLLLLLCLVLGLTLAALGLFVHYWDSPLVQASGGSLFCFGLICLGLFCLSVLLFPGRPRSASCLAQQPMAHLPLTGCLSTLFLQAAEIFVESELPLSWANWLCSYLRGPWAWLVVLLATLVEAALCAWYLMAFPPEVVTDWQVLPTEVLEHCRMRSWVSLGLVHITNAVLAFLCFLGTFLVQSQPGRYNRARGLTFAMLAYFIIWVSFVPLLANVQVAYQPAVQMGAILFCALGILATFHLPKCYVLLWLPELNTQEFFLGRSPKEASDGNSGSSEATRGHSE
Assay: Calcium assay, hTAS1R1 mutant co-expressed with rTAS1R3
Format: cell-based, human, rat
Conditions: for response to the agonist alone, vs WT: D192F
Text: Chimeric Gα proteins, such as Gα16Gust44, Gα16Gi3 or Gα15i2, are widely used in the functional expression of TAS1R receptors ([Backes et al., 2015]; [Suess et al., 2015]; [Toda et al., 2021], [Toda et al., 2013], [Toda et al., 2018]; [Zhang et al., 2008]). Chimeric Gα15i2 (([Toda et al., 2013]), Supplementary data) was generated by replacing the last five residues of the C-terminal tail of rat Gα15i2 (EINLL) (UniProt number G3V6N8; https://www.uniprot.org/uniprot/) with the counterpart sequence from human GNAI2 (DCGLF) (UniProt number P04899-1) and cloning into the pcDNA3.1/Hygro vector (Invitrogen, Thermo Fisher Scientific, Illkirch, France) between the HindIII and NotI restriction sites, resulting in the plasmid pcDNA3.1-Gα15i2. Chimeric Gα16Gust44 construct have already been reported ([Raliou et al., 2011]). Briefly, Gα16Gust44 was generated by replacing the C-terminal of Gα16 with the C-terminal 44 residues of gustducin. As previously described, hTAS1R1 was amplified from human fungiform papillae cDNA and cloned and inserted into pcDNA3 (Invitrogen), generating pcDNA3-TAS1R1-WT (wild-type) ([Raliou et al., 2011]). […] The cDNA coding region of rTAS1R3 was synthesized with optimized-codon usage for human expression (Genewiz) and was cloned and inserted into the mammalian pcDNA4/myc-HisA (Invitrogen) expression vector between the EcoRI and NotI restriction sites, resulting in the plasmid pcDNA4-rTAS1R3. […] The sequence integrity of all the plasmid constructs was verified via automated DNA sequencing (Genewiz).
The hTAS1R1 mutants were co-expressed with the rTAS1R3 subunit in HEK293 cells. […] As a control, the functionality of the mutated receptors was checked after stimulation with S807 (Fig. S8), which interacts with TAS1R1-TMD ([Zhang et al., 2008]).

Structure (SMILES)	response to the agonist alone, vs WT	EC50 [mM]
N[C@@H](CCC(=O)O)C(=O)O [L-Glu, L-glutamic acid, reference compound]	completely suppressed; also recorded: completely abolished	
N[C@@H](CCC(=O)N[C@@H](CS)C(=O)NCC(=O)O)C(=O)O [GSH, γ-L-glutamyl-L-cysteinyl-glycine]	fully abolished; also recorded: completely abolished	> 30
CCCC(CCC)NC(=O)c1ccc2c(c1)OCO2 [S807, N-(heptan-4-yl)benzo[d][1,3]dioxole-5-carboxamide, reference compound]	increased	
